Results published in patent publication US7407947B2, “Amphoteric sterols and the use thereof” (Novosom AG, priority 2001, dated 2008).

Experiment: Isoelectric point of the sterol derivative
Type: physicochemical
Conditions: stated as very close to pH 6.5

- isoelectric point: ~6.5
Structure (SMILES): CC(C)CCCC(C)C1CCC2C3CC=C4CC(OC(=O)CCC(=O)NC(Cc5cnc[nH]5)C(=O)O)CCC4(C)C3CCC12C [Hist-Chol, Cholesteryl-L-histidyl Succinate]
